Results taken from ChEMBL document CHEMBL6134819, “Discovery of novel tranylcypromine-indazole-based derivatives as LSD1 inhibitors for acute myeloid leukemia treatment” (Eur J Med Chem, 2025).

Key:
[1] = target: Lysine-specific histone demethylase 1A (Homo sapiens, UniProt O60341); assay: Inhibition of human recombinant LSD1 (852 residues) incubated for 1 hr by HTRF method
MV4-11 = assay: Antiproliferative activity against human MV4-11 cells assessed as inhibition of cell growth measured after 7 days by cell-titer glo assay; format: functional, cell-based; settings: MV4-11, 168 h
HL-60 = assay: Antiproliferative activity against human HL-60 cells assessed as inhibition of cell growth measured after 7 days by cell-titer glo assay; format: functional, cell-based; settings: HL-60, 168 h
THP-1 = assay: Antiproliferative activity against human THP-1 cells assessed as inhibition of cell growth measured after 7 days by cell-titer glo assay; format: functional, cell-based; settings: THP-1, 168 h
[2] = target: Voltage-gated inwardly rectifying potassium channel KCNH2 (Homo sapiens, UniProt Q12809); assay: Inhibition of human ERG by whole cell patch clamp assay; format: toxicity
Chain of Voltage-gated inwardly rectifying potassium channel KCNH2 (Q12809 whole entry): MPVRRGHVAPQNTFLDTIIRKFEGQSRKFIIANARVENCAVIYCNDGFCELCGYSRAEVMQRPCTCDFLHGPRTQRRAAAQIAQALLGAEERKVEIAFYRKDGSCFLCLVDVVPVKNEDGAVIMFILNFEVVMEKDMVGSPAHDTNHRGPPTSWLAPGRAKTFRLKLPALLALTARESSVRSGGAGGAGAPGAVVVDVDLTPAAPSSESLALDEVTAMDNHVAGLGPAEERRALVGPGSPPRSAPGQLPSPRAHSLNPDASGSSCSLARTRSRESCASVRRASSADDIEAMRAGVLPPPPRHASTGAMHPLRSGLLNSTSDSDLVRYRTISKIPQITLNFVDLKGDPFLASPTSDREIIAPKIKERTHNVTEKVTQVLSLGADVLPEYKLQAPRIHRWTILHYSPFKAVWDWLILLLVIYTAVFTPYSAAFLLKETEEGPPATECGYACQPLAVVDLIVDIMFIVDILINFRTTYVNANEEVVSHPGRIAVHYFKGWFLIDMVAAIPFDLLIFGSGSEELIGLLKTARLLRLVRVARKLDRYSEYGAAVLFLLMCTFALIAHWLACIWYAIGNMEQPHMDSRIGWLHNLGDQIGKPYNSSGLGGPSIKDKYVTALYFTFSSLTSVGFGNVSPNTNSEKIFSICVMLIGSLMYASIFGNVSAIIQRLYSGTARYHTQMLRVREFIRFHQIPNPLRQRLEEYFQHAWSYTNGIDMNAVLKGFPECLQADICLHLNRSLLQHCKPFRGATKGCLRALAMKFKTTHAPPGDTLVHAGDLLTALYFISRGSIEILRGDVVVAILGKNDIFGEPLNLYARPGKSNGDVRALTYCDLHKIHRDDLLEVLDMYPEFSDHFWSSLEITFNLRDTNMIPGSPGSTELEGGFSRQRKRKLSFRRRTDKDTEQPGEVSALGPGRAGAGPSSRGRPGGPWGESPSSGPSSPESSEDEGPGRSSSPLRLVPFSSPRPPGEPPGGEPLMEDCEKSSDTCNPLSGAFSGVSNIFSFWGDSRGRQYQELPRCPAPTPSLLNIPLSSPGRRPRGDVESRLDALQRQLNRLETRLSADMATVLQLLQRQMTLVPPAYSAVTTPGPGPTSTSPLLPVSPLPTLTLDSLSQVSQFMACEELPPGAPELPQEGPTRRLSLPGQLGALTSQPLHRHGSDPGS

Row | Structure (SMILES) | IC50 [1] [µM] | IC50 (MV4-11) [µM] | IC50 (HL-60) [µM] | IC50 (THP-1) [µM] | IC50 [2] [µM]
1 | O=C(Cc1ccccc1)n1ncc2cc(-n3cc(CN[C@@H]4C[C@H]4c4ccc(F)c(F)c4)nn3)ccc21 | 0.0156 | 7.84 | 2.83 | 8.32 | 
2 | COc1cc2[nH]ncc2cc1-n1cc(CN[C@@H]2C[C@H]2c2ccc(F)c(F)c2)nn1 | 0.00346 | 8.74 | 10.9 | 12.6 | 
3 | O=C(C1CCCC1)n1ncc2cc(-n3cc(CN[C@@H]4C[C@H]4c4ccc(F)c(F)c4)nn3)ccc21 | 0.012 | 8.25 | 3.44 | 8.37 | 
4 | O=C(c1ccccc1)n1ncc2cc(-n3cc(CN[C@@H]4C[C@H]4c4ccc(F)c(F)c4)nn3)ccc21 | 0.00755 | 6.3 | 2.81 | 12.9 | 
5 | Fc1ccc([C@@H]2C[C@H]2NCc2cn(-c3cccc4[nH]ncc34)nn2)cc1F | 0.00663 | 12.5 | 15.5 | 3.95 | 
6 | Fc1ccc([C@@H]2C[C@H]2NCc2cn(Cc3ccc4[nH]ncc4c3)nn2)cc1F | 0.0115 | 6.56 | 2.47 | 6.34 | 
7 | Fc1ccc([C@@H]2C[C@H]2NCc2cn(-c3cnc4[nH]ncc4c3)nn2)cc1F | 0.0209 |  |  |  | 
8 | Fc1ccc([C@@H]2C[C@H]2NCc2cn(-c3cc4cn[nH]c4cc3F)nn2)cc1F | 0.00645 | 6.86 | 7.44 | 7.5 | 
9 | O=C(C1CCC1)n1ncc2cc(-n3cc(CN[C@@H]4C[C@H]4c4ccc(F)c(F)c4)nn3)ccc21 | 0.0155 | 5.51 | 6.12 | 10.9 | 
10 | O=C(C1CCCCC1)n1ncc2cc(-n3cc(CN[C@@H]4C[C@H]4c4ccc(F)c(F)c4)nn3)ccc21 | 0.0159 | 9.67 | 3 | 5.57 | 
11 | O=S(=O)(C1CCCCC1)n1ncc2cc(-n3cc(CN[C@@H]4C[C@H]4c4ccc(F)c(F)c4)nn3)ccc21 | 0.00482 | 4.33 | 1.88 | 2.41 | 
12 | Fc1ccc([C@@H]2C[C@H]2NCc2cn(-c3ccc4[nH]ncc4c3)nn2)cc1F |  |  |  |  | 0.61
13 | Cc1cc2[nH]ncc2cc1-n1cc(CN[C@@H]2C[C@H]2c2ccc(F)c(F)c2)nn1 | 0.0111 | 6.28 | 4.11 | 5.7 | 
14 | Fc1ccc([C@@H]2C[C@H]2NCc2cn(CCc3ccc4[nH]ncc4c3)nn2)cc1F | 0.0579 |  |  |  | 
15 | Fc1ccc([C@@H]2C[C@H]2NCc2cn(-c3ccc4cn[nH]c4c3)nn2)cc1F | 0.0144 | > 25 | > 25 | 3.76 | 
16 | Fc1ccc([C@@H]2C[C@H]2NCc2cn(-c3n[nH]c4ccccc34)nn2)cc1F | 0.0051 | > 25 | > 25 | > 25 | 

Second part, led by results:

Row | IC50 [1] [µM] | IC50 (MV4-11) [µM] | IC50 (HL-60) [µM] | IC50 (THP-1) [µM] | Structure (SMILES) | IC50 [2] [µM]
17 | 0.00828 | 4.08 | 3.83 | 1.67 | Fc1ccc([C@@H]2C[C@H]2NCc2cn(-c3ccc4c(cnn4Cc4ccccc4)c3)nn2)cc1F | 
18 | 0.0146 | 3.31 | 2.41 | 24.3 | CS(=O)(=O)n1ncc2cc(-n3cc(CN[C@@H]4C[C@H]4c4ccc(F)c(F)c4)nn3)ccc21 | 
19 | 0.0043 | 6.32 | 5.57 | 3.39 | O=S(=O)(C1CC1)n1ncc2cc(-n3cc(CN[C@@H]4C[C@H]4c4ccc(F)c(F)c4)nn3)ccc21 | 
20 | 0.00997 | 3.89 | 3.42 | 3.59 | CC(C)C(=O)n1ncc2cc(-n3cc(CN[C@@H]4C[C@H]4c4ccc(F)c(F)c4)nn3)ccc21 | 
21 | 0.0084 | 3.87 | 4.22 | 5.4 | CC(=O)n1ncc2cc(-n3cc(CN[C@@H]4C[C@H]4c4ccc(F)c(F)c4)nn3)ccc21 | 
22 | 0.0116 | 2.56 | 1.53 | 7.29 | CCC(=O)n1ncc2cc(-n3cc(CN[C@@H]4C[C@H]4c4ccc(F)c(F)c4)nn3)ccc21 | 
23 | 0.00462 | 17.1 | 2.49 | 4.52 | Cn1ncc2cc(-n3cc(CN[C@@H]4C[C@H]4c4ccc(F)c(F)c4)nn3)ccc21 | 
24 | 0.0038 | 3.52 | 7.83 | 6.52 | CCn1ncc2cc(-n3cc(CN[C@@H]4C[C@H]4c4ccc(F)c(F)c4)nn3)ccc21 | 
25 | 0.00414 | 2.86 | 4.05 | 3.88 | Fc1ccc([C@@H]2C[C@H]2NCc2cn(-c3ccc4c(cnn4C4CCCC4)c3)nn2)cc1F | 
26 | 0.00777 | 11.5 | 6.81 | 4.59 | CCS(=O)(=O)n1ncc2cc(-n3cc(CN[C@@H]4C[C@H]4c4ccc(F)c(F)c4)nn3)ccc21 | 
27 | 0.00159 | 10.9 | 1.86 | 5.01 | Fc1ccc([C@@H]2C[C@H]2NCc2cn(-c3ccc4c(cnn4CC(F)(F)F)c3)nn2)cc1F | 
28 | 0.0123 | 2.61 | 5.5 | 5.94 | O=C(C1CC1)n1ncc2cc(-n3cc(CN[C@@H]4C[C@H]4c4ccc(F)c(F)c4)nn3)ccc21 | 
